Legend:
Male Wistar rats [1] = experiment: Acute activity after single p.o. administration, paw withdrawal test (Randall and Selitto), % of analgesia; type: in vivo, rat; conditions: for effect on analgesic activity of codeine: 15 mg magnesium ions/kg p.o. with codeine 175 mg/kg p.o.; for effect on morphine analgesia / enhancement of morphine analgesia lasted up to / time at which enhancement of morphine analgesia appeared: 15 mg magnesium ions/kg p.o. with morphine 15 mg/kg p.o.; for effect on oxycodone analgesia / time at which activity on oxycodone analgesia appeared / time course of activity on oxycodone analgesia: 15 mg magnesium ions/kg p.o. with oxycodone 5 mg/kg p.o.; for analgesic activity on separate administration (codeine study) / analgesic activity / pain perception threshold on separate administration (dihydrocodeine study) / analgesic activity / pain threshold when administered alone (morphine study) / analgesic activity on separate administration (oxycodone study) / analgesic activity on separate administration (tramadol study): single separate administration p.o., magnesium salts 15 mg magnesium ions/kg; for analgesic activity on separate administration (codeine study): codeine 175 mg/kg; for analgesic activity / pain perception threshold on separate administration (dihydrocodeine study): dihydrocodeine 50 mg/kg; for analgesic activity / pain threshold when administered alone (morphine study): morphine 15 mg/kg; for analgesic activity on separate administration (oxycodone study): oxycodone 5 mg/kg; for analgesic activity on separate administration (tramadol study): tramadol 125 mg/kg
Description: (§1) Male Wistar rats (250-300 g) were housed in a room maintained at a temperature of 20±2° C. under 12 h-12 h light-dark cycles. The animals had free access to food and water. Experimental groups consisted of six rats.
(§2) Drugs • Morphine at a dose of 15 mg/kg, codeine at a dose of 175 mg/kg, tramadol at a dose of 125 mg/kg and oxycodone at a dose of 5 mg/kg were dissolved in distilled water; • Dihydrocodeine at a dose of 50 mg/kg was suspended in 1% solution of methylcellulose; • Magnesium lactate (in micronized form)—at a dose of 15 mg magnesium ions/kg (150 mg of magnesium lactate/kg) was suspended in 0.5% solution of methylcellulose; • Magnesium lactate in normal (non-micronized) form—at doses of 15 or 30 mg magnesium ions/kg (150 or 300 mg of magnesium lactate/kg, respectively) was suspended in 0.5% solution of methylcellulose; • Magnesium citrate (in micronized and normal form)—at a dose of 15 mg magnesium ions/kg (112 mg of magnesium citrate/kg) was dissolved in distilled water; • Magnesium hydroaspartate (in micronized and normal form)—at a dose of 15 mg magnesium ions/kg (216 mg of magnesium hydroaspartate/kg) was suspended in 0.5% solution of methylcellulose; • Magnesium chloride (in micronized and normal form)—at a dose of 15 mg magnesium ions/kg (59.5 mg of magnesium chloride/kg) was dissolved in distilled water; • Control animals received a 0.5% solution of methylcellulose, a 1% solution of methylcellulose and distilled water, respectively, according to the same time schedule.
Magnesium salts and investigated opioids were administered concomitantly.
The micronized form of magnesium salts used in experiments contains particles of magnesium compounds of size D90<50 μm.
The normal magnesium salts form used in experiments contains particles of sizes commonly available in the market.
Acute activity of investigated drugs was measured in short time periods (from 5 to 300 min) after single administration.
(§3) All drugs were administered per os (p.o.); literally—orally. However, in practice, drugs were administered intragastric via a gastric tube.
(§4) Changes in pain thresholds were determined using a mechanical stimuli—the modification of the classic paw withdrawal test described by Randall and Selitto [1957]. In order to produce mechanical stimulation, progressively increasing pressure was applied to the dorsal surface of the rat's paw using an analgesymeter. The instrument used increased the force on the paw at a rate of 32 grams per second. The nociceptive threshold was defined as force in grams, at which the rat attempted to withdraw its right hindpaw and values of pressure were recorded at this very moment. At least two observers controlled the response.
(§5) Nociceptive thresholds (average of two trials) measured for each animal before single administration of investigated drugs (measurement of acute activity) or in day 0 before the first administration (measurement of prolonged activity) constituted the baseline pain threshold—A. Next, measurements of the withdrawal threshold to mechanical stimuli were performed at 5, 15, 30, 60, 90, 120, 180, 240, 300 min after drug administration (measurements of acute activity) or every day before drug administration (measurements of prolonged activity)—B.
(§6) In all experimental sessions (i.e. every day, each drug investigated) values of thresholds obtained (B) were compared to baseline (A).
(§7) Changes in pain threshold were calculated as a percent of baseline value according to the following formula:
(§8) [formula] • C—% of analgesia; A—pressure (in g), baseline pain threshold; B—pressure (in g) in consecutive measurements.
(§9) Percents of analgesia values calculated as above for individual animals were subsequently used to calculate average values in particular experimental groups and for statistical analysis.
The results are expressed as mean values±standard deviation of the mean (±S.E.M.).

Male Wistar rats [2] = experiment: Prolonged activity on repeated daily p.o. administration (7 or 10 days), paw withdrawal test (Randall and Selitto); type: in vivo, rat; conditions: for analgesic activity on separate administration, 7 days (codeine study) / pain threshold on separate administration, 7 days (dihydrocodeine study) / pain threshold on separate administration, 7 days (morphine study) / analgesic activity on separate administration, 7 days (oxycodone study) / pain threshold on separate administration, 10 days (tramadol study): separate administration p.o., magnesium lactate micronized 15 or normal 30 mg magnesium ions/kg; for analgesic activity on separate administration, 7 days (codeine study): codeine 175 mg/kg; for pain threshold on separate administration, 7 days (dihydrocodeine study): dihydrocodeine 50 mg/kg; for pain threshold on separate administration, 7 days (morphine study): morphine 15 mg/kg; for analgesic activity on separate administration, 7 days (oxycodone study): oxycodone 5 mg/kg; for pain threshold on separate administration, 10 days (tramadol study): tramadol 125 mg/kg
Description: as §1, §2
Prolonged activity of the investigated drugs was measured the following day after initial administration, but before the next administration as well as after cessation of administration. Drugs were administered for seven consecutive days (administration of morphine, codeine, dihydrocodeine, oxycodone) or for ten days (administration of tramadol).
as §3, §4, §5, §6, §7, §8, §9
The results are expressed as mean values±standard […] of the mean (±S.E.M.). The statistical significance of differences between groups was evaluated by Student's t-test. p≦0.05 was accepted as statistically significant.

[3] = single administration, 15 mg magnesium ions/kg p.o. with dihydrocodeine 50 mg/kg p.o.
[4] = single administration, 15 mg magnesium ions/kg p.o. with tramadol 125 mg/kg p.o.
[5] = 15 mg magnesium ions/kg p.o. with codeine 175 mg/kg p.o., 7 days
[6] = 15 mg magnesium ions/kg p.o. with dihydrocodeine 50 mg/kg p.o., 7 days
[7] = 15 mg magnesium ions/kg p.o. with morphine 15 mg/kg p.o., 7 days
[8] = 15 mg magnesium ions/kg p.o. with tramadol 125 mg/kg p.o., 10 consecutive days
[9] = 30 mg magnesium ions/kg p.o. with codeine 175 mg/kg p.o., 7 days
[10] = 30 mg magnesium ions/kg p.o. with morphine 15 mg/kg p.o., 7 days

Row | SMILES | effect on analgesic activity of codeine (Male Wistar rats [1]; single administration) | effect on dihydrocodeine analgesia (Male Wistar rats [1]; [3]) | time course of activity on dihydrocodeine analgesia (Male Wistar rats [1]; [3]) | effect on morphine analgesia (Male Wistar rats [1]; single administration) | enhancement of morphine analgesia lasted up to (Male Wistar rats [1]; single administration) [min] | time at which enhancement of morphine analgesia appeared (Male Wistar rats [1]; single administration) [min] | effect on oxycodone analgesia (Male Wistar rats [1]; single administration) | time at which activity on oxycodone analgesia appeared (Male Wistar rats [1]; single administration) [min] | time course of activity on oxycodone analgesia (Male Wistar rats [1]; single administration) | effect on antinociceptive activity of tramadol (Male Wistar rats [1]; [4]) | analgesic activity on separate administration (codeine study) (Male Wistar rats [1]) | analgesic activity / pain perception threshold on separate administration (dihydrocodeine study) (Male Wistar rats [1]) | analgesic activity / pain threshold when administered alone (morphine study) (Male Wistar rats [1]) | analgesic activity on separate administration (oxycodone study) (Male Wistar rats [1]) | analgesic activity on separate administration (tramadol study) (Male Wistar rats [1]) | analgesic activity on separate administration, 7 days (codeine study) (Male Wistar rats [2]) | pain threshold on separate administration, 7 days (dihydrocodeine study) (Male Wistar rats [2]) | pain threshold on separate administration, 7 days (morphine study) (Male Wistar rats [2]) | analgesic activity on separate administration, 7 days (oxycodone study) (Male Wistar rats [2]) | pain threshold on separate administration, 10 days (tramadol study) (Male Wistar rats [2]) | other results
1 | CC(O)C(=O)[O-].CC(O)C(=O)[O-].[Mg+2] (centres unmarked) [micronized magnesium lactate, Magnesium lactate] | significantly enhanced the analgesic activity of codeine | significantly enhanced dihydrocodeine analgesia | gradually increased and reached a maximum between min 45 and 90 of the measurements and then became weaker by min 210 | significantly enhanced morphine analgesia | 240 | 30 | significantly enhanced oxycodone analgesia | 5 | maintained at a constant level up to min 30 of the study, then became weaker in min 45 and disappeared in min 60 | increased antynociceptive activity of tramadol | did not exhibit analgesic activity | did not exhibit analgesic activity | Neither morphine nor magnesium lactate and chloride in micronized or normal form administered alone showed analgesic activity | showed no analgesic activity | did not exhibit analgesic activity | did not exhibit analgesic activity | did not alter the pain threshold | did not alter the pain threshold | did not exhibit analgesic activity | did not alter the pain threshold | course of enhancement of codeine analgesia (Male Wistar rats [2]; [5]): reached a maximum on days 6 and 7; day on which enhancement of codeine analgesia began (Male Wistar rats [2]; [5]): fourth; effect on analgesic activity of chronically administered codeine (Male Wistar rats [2]; [5]): also enhanced analgesic activity of chronically administered codeine; activity after cessation of drug administration (codeine study) (Male Wistar rats [2]; 15 mg magnesium ions/kg p.o. with codeine 175 mg/kg p.o., days 8-10): rapidly decreased; course of enhancement of dihydrocodeine analgesia (Male Wistar rats [2]; [6]): reached a maximum on days 6 and 7; day on which enhancement of dihydrocodeine analgesia began (Male Wistar rats [2]; [6]): fourth; effect on analgesic activity of chronically administered dihydrocodeine (Male Wistar rats [2]; [6]): gradually enhanced the analgesic activity of chronically administered dihydrocodeine; pain threshold after cessation of drug administration (dihydrocodeine study) (Male Wistar rats [2]; 15 mg magnesium ions/kg p.o. with dihydrocodeine 50 mg/kg p.o., days 8-10): the pain threshold rapidly reduced to control values; course of enhancement of morphine analgesia (Male Wistar rats [2]; [7]): grew gradually to 7 day; day on which enhancement of morphine analgesia began (Male Wistar rats [2]; [7]): 3 days; effect on analgesic activity of morphine, 7-day administration (Male Wistar rats [2]; [7]): also enhanced the analgesic activity of morphine; pain threshold after cessation of drug administration (morphine study) (Male Wistar rats [2]; 15 mg magnesium ions/kg p.o. with morphine 15 mg/kg p.o., days 8-10): gradual return to baseline values; course of enhancement of tramadol analgesia (Male Wistar rats [2]; [8]): gradually increased (to day 7), and then was maintained to day 10; day on which enhancement of tramadol analgesia began (Male Wistar rats [2]; [8]): third; effect on long-term analgesic activity of tramadol (Male Wistar rats [2]; [8]): enhanced the long-term analgesic activity of the examined opioid; pain threshold after removal of the tested substances (tramadol study) (Male Wistar rats [2]; 15 mg magnesium ions/kg p.o. with tramadol 125 mg/kg p.o., days 11-12): the pain threshold returned to control values by day 11
2 | CN1CC[C@]23c4c5ccc(O)c4O[C@H]2[C@@H](O)C=C[C@H]3[C@H]1C5 [morphine, reference compound] |  |  |  |  |  |  |  |  |  |  |  |  | Neither morphine nor magnesium lactate and chloride in micronized or normal form administered alone showed analgesic activity |  |  |  |  | slightly increased the threshold for mechanical nociceptive stimuli |  |  | 
3 | CC(O)C(=O)[O-].CC(O)C(=O)[O-].[Mg+2] (centres unmarked) [normal magnesium lactate, Magnesium lactate] | significantly enhanced the analgesic activity of codeine | significantly enhanced dihydrocodeine analgesia | gradually increased and reached a maximum between min 45 and 90 of the measurements and then became weaker by min 210 | significantly enhanced morphine analgesia | 180 | 60 | significantly enhanced oxycodone analgesia | 5 | weakened by min 15 and 30 and was maintained up to min 45 | increased antynociceptive activity of tramadol | did not exhibit analgesic activity | did not exhibit analgesic activity | Neither morphine nor magnesium lactate and chloride in micronized or normal form administered alone showed analgesic activity | showed no analgesic activity | did not exhibit analgesic activity | did not exhibit analgesic activity | did not alter the pain threshold | did not alter the pain threshold | did not exhibit analgesic activity | did not alter the pain threshold | activity on dihydrocodeine analgesia in comparison (to micronized form / to magnesium lactate) (Male Wistar rats [1]; [3]): somewhat weaker; activity on tramadol analgesia in comparison (to micronized form / to magnesium chloride) (Male Wistar rats [1]; [4]): weaker than the micronized form; activity on codeine analgesia compared to micronized form (Male Wistar rats [2]; [9]): significantly weaker; days on which activity on codeine analgesia appeared (Male Wistar rats [2]; [9]): only appeared on days 6 and 7; activity on dihydrocodeine analgesia compared to micronized form (Male Wistar rats [2]; 30 mg magnesium ions/kg p.o. with dihydrocodeine 50 mg/kg p.o., 7 days): significantly weaker in comparison to the micronized form; activity on morphine analgesia compared to micronized form (Male Wistar rats [2]; [10]): much weaker; days on which activity on morphine analgesia appeared (Male Wistar rats [2]; [10]): only on days 6 and 7

Source: US9101577B2, “Analgesic pharmaceutical composition for oral administration” (Warszawski Uniwersytet Medyczny, priority 2011, dated 2015)
